PMC6979384, “Characterization of the plant homeodomain (PHD) reader family for their histone tail interactions” (Epigenetics & Chromatin, 2020)

What was measured:
Experiment in all cases: Histone peptide microarray
Assay type in all cases: binding, human
Settings in all cases: sheet "Array Heatmap"
MORC3 (CW) = test system: MORC3 (CW)
Summary of the method: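 GST-tagged PHD readers, 0.5 μM, probed on a microarray of 293 synthetic histone peptides carrying single or combinatorial PTMs (optimized Petell protocol). Signals are averaged over 4 replicates and expressed as relative binding.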

DIDO1 = test system: DIDO1
Summary of the method: (§1)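 Binding of recombinant GST-fused PHD readers (0.5 μM) is detected on an array of 293 histone peptides, modified singly or in combination. An optimized array protocol is followed, and each intensity is the average of quadruplicate measurements with standard deviation.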

ING5 = test system: ING5
Summary of the method: as §1

PHRF1 (RP) = test system: PHRF1 (RP)
Summary of the method: as §1

CHD4 (PPCC) = test system: CHD4 (PPCC)
Summary of the method: as §1

ING3 = test system: ING3
Summary of the method: as §1

CHD5 (PPCC) = test system: CHD5 (PPCC)
Summary of the method: as §1

KDM5A (3) = test system: KDM5A (3)
Summary of the method: as §1

ING1 = test system: ING1
Summary of the method: as §1

SP140L = test system: SP140L
Summary of the method: as §1

KDM4C (TTP) = test system: KDM4C (TTP)
Summary of the method: as §1

ING4 = test system: ING4
Summary of the method: as §1

AIRE (PP) = test system: AIRE (PP)
Summary of the method: as §1

PHF21A = test system: PHF21A
Summary of the method: as §1

BAZ2B = test system: BAZ2B
Summary of the method: as §1

PHF13 = test system: PHF13
Summary of the method: as §1

KDM5B (3) = test system: KDM5B (3)
Summary of the method: as §1

CHD5 (PCC) = test system: CHD5 (PCC)
Summary of the method: as §1

RAG2 = test system: RAG2
Summary of the method: as §1

KDM7A = test system: KDM7A
Summary of the method: as §1

PHF2 = test system: PHF2
Summary of the method: as §1

KDM5B (1) = test system: KDM5B (1)
Summary of the method: as §1

PHF8 = test system: PHF8
Summary of the method: as §1

MLL5 = test system: MLL5
Summary of the method: as §1

BPTF (PB) = test system: BPTF (PB)
Summary of the method: as §1

TAF3 = test system: TAF3
Summary of the method: as §1

PHF23 = test system: PHF23
Summary of the method: as §1

TRIM66 (PB) = test system: TRIM66 (PB)
Summary of the method: as §1

ING2 = test system: ING2
Summary of the method: as §1

DPF2 (PPC2W2) = test system: DPF2 (PPC2W2)
Summary of the method: as §1

KDM5A (1) = test system: KDM5A (1)
Summary of the method: as §1

[1] = GST-tagged MORC3 (CW), arrays performed twice, total replicate number n = 4
[2] = GST-tagged DIDO1, arrays performed twice, total replicate number n = 4
[3] = GST-tagged ING5, arrays performed twice, total replicate number n = 4
[4] = GST-tagged PHRF1 (RP), arrays performed twice, total replicate number n = 4
[5] = GST-tagged CHD4 (PPCC), arrays performed twice, total replicate number n = 4
[6] = GST-tagged ING3, arrays performed twice, total replicate number n = 4
[7] = GST-tagged CHD5 (PPCC), arrays performed twice, total replicate number n = 4
[8] = GST-tagged KDM5A (3), arrays performed twice, total replicate number n = 4
[9] = GST-tagged ING1, arrays performed twice, total replicate number n = 4
[10] = GST-tagged SP140L, arrays performed twice, total replicate number n = 4
[11] = GST-tagged KDM4C (TTP), arrays performed twice, total replicate number n = 4
[12] = GST-tagged ING4, arrays performed twice, total replicate number n = 4
[13] = GST-tagged AIRE (PP), arrays performed twice, total replicate number n = 4
[14] = GST-tagged PHF21A, arrays performed twice, total replicate number n = 4
[15] = GST-tagged BAZ2B, arrays performed twice, total replicate number n = 4
[16] = GST-tagged PHF13, arrays performed twice, total replicate number n = 4
[17] = GST-tagged KDM5B (3), arrays performed twice, total replicate number n = 4
[18] = GST-tagged CHD5 (PCC), arrays performed twice, total replicate number n = 4
[19] = GST-tagged RAG2, arrays performed twice, total replicate number n = 4
[20] = GST-tagged KDM7A, arrays performed twice, total replicate number n = 4
[21] = GST-tagged PHF2, arrays performed twice, total replicate number n = 4
[22] = GST-tagged KDM5B (1), arrays performed twice, total replicate number n = 4
[23] = GST-tagged PHF8, arrays performed twice, total replicate number n = 4
[24] = GST-tagged MLL5, arrays performed twice, total replicate number n = 4
[25] = GST-tagged BPTF (PB), arrays performed twice, total replicate number n = 4
[26] = GST-tagged TAF3, arrays performed twice, total replicate number n = 4
[27] = GST-tagged PHF23, arrays performed twice, total replicate number n = 4
[28] = GST-tagged TRIM66 (PB), arrays performed twice, total replicate number n = 4
[29] = GST-tagged ING2, arrays performed twice, total replicate number n = 4
[30] = GST-tagged DPF2 (PPC2W2), arrays performed twice, total replicate number n = 4
[31] = GST-tagged KDM5A (1), arrays performed twice, total replicate number n = 4
[32] = GST-tagged reader, histone peptide array, total n = 4

Substance: H3 (1-20) N-ac: H3 1-20
- Array Heatmap signal, MORC3 (CW) (MORC3 (CW); [1]): 0.4955
- Array Heatmap signal, DIDO1 (DIDO1; [2]): 0.6386
- Array Heatmap signal, ING5 (ING5; [3]): 0.3522
- Array Heatmap signal, PHRF1 (RP) (PHRF1 (RP); [4]): 0.6182
- Array Heatmap signal, CHD4 (PPCC) (CHD4 (PPCC); [5]): 0.5805
- Array Heatmap signal, ING3 (ING3; [6]): 0.4681
- Array Heatmap signal, CHD5 (PPCC) (CHD5 (PPCC); [7]): 0.5483
- Array Heatmap signal, KDM5A (3) (KDM5A (3); [8]): 0.5353
- Array Heatmap signal, ING1 (ING1; [9]): 0.5284
- Array Heatmap signal, SP140L (SP140L; [10]): 0.3813
- Array Heatmap signal, KDM4C (TTP) (KDM4C (TTP); [11]): 0.4656
- Array Heatmap signal, ING4 (ING4; [12]): 0.4519
- Array Heatmap signal, AIRE (PP) (AIRE (PP); [13]): 0.5035
- Array Heatmap signal, PHF21A (PHF21A; [14]): 0.4724
- Array Heatmap signal, BAZ2B (BAZ2B; [15]): 0.4663
- Array Heatmap signal, PHF13 (PHF13; [16]): 0.6234
- Array Heatmap signal, KDM5B (3) (KDM5B (3); [17]): 0.5329
- Array Heatmap signal, CHD5 (PCC) (CHD5 (PCC); [18]): 0.8196
- Array Heatmap signal, RAG2 (RAG2; [19]): 0.259
- Array Heatmap signal, KDM7A (KDM7A; [20]): 0.3283
- Array Heatmap signal, PHF2 (PHF2; [21]): 0.4904
- Array Heatmap signal, KDM5B (1) (KDM5B (1); [22]): 0.6502
- Array Heatmap signal, PHF8 (PHF8; [23]): 0.365
- Array Heatmap signal, MLL5 (MLL5; [24]): 0.5714
- Array Heatmap signal, BPTF (PB) (BPTF (PB); [25]): 0.3531
- Array Heatmap signal, TAF3 (TAF3; [26]): 0.3122
- Array Heatmap signal, PHF23 (PHF23; [27]): 0.532
- Array Heatmap signal, TRIM66 (PB) (TRIM66 (PB); [28]): 0.7386
- Array Heatmap signal, ING2 (ING2; [29]): 0.6126
- Array Heatmap signal, DPF2 (PPC2W2) (DPF2 (PPC2W2); [30]): 0.6951
- Array Heatmap signal, KDM5A (1) (KDM5A (1); [31]): 0.4705

Substance: H3 (1-25): H3 1-25
- Array Heatmap signal, MORC3 (CW) (MORC3 (CW); [32]): 0.6357
- Array Heatmap signal, DIDO1 (DIDO1; [32]): 0.658
- Array Heatmap signal, ING5 (ING5; [32]): 0.3412
- Array Heatmap signal, PHRF1 (RP) (PHRF1 (RP); [32]): 0.8507
- Array Heatmap signal, CHD4 (PPCC) (CHD4 (PPCC); [32]): 0.5563
- Array Heatmap signal, ING3 (ING3; [32]): 0.4651
- Array Heatmap signal, CHD5 (PPCC) (CHD5 (PPCC); [32]): 0.5322
- Array Heatmap signal, KDM5A (3) (KDM5A (3); [32]): 0.6477
- Array Heatmap signal, ING1 (ING1; [32]): 0.5226
- Array Heatmap signal, SP140L (SP140L; [32]): 0.342
- Array Heatmap signal, KDM4C (TTP) (KDM4C (TTP); [32]): 0.4415
- Array Heatmap signal, ING4 (ING4; [32]): 0.4369
- Array Heatmap signal, AIRE (PP) (AIRE (PP); [32]): 0.5222
- Array Heatmap signal, PHF21A (PHF21A; [32]): 0.4429
- Array Heatmap signal, BAZ2B (BAZ2B; [32]): 0.4554
- Array Heatmap signal, PHF13 (PHF13; [32]): 0.6012
- Array Heatmap signal, KDM5B (3) (KDM5B (3); [32]): 0.5183
- Array Heatmap signal, CHD5 (PCC) (CHD5 (PCC); [32]): 0.8391
- Array Heatmap signal, RAG2 (RAG2; [32]): 0.2539
- Array Heatmap signal, KDM7A (KDM7A; [32]): 0.3768
- Array Heatmap signal, PHF2 (PHF2; [32]): 0.5334
- Array Heatmap signal, KDM5B (1) (KDM5B (1); [32]): 0.6949
- Array Heatmap signal, PHF8 (PHF8; [32]): 0.366
- Array Heatmap signal, MLL5 (MLL5; [32]): 0.57
- Array Heatmap signal, BPTF (PB) (BPTF (PB); [32]): 0.3452
- Array Heatmap signal, TAF3 (TAF3; [32]): 0.2692
- Array Heatmap signal, PHF23 (PHF23; [32]): 0.5406
- Array Heatmap signal, TRIM66 (PB) (TRIM66 (PB); [32]): 0.9221
- Array Heatmap signal, ING2 (ING2; [32]): 0.6234
- Array Heatmap signal, DPF2 (PPC2W2) (DPF2 (PPC2W2); [32]): 0.7357
- Array Heatmap signal, KDM5A (1) (KDM5A (1); [32]): 0.4713

Substance: H3 (1-32): H3 1-32
- Array Heatmap signal, MORC3 (CW) (MORC3 (CW); [1]): 0.4518
- Array Heatmap signal, DIDO1 (DIDO1; [2]): 0.6427
- Array Heatmap signal, ING5 (ING5; [3]): 0.344
- Array Heatmap signal, PHRF1 (RP) (PHRF1 (RP); [4]): 0.6359
- Array Heatmap signal, CHD4 (PPCC) (CHD4 (PPCC); [5]): 0.5584
- Array Heatmap signal, ING3 (ING3; [6]): 0.4534
- Array Heatmap signal, CHD5 (PPCC) (CHD5 (PPCC); [7]): 0.5395
- Array Heatmap signal, KDM5A (3) (KDM5A (3); [8]): 0.5232
- Array Heatmap signal, ING1 (ING1; [9]): 0.5053
- Array Heatmap signal, SP140L (SP140L; [10]): 0.3492
- Array Heatmap signal, KDM4C (TTP) (KDM4C (TTP); [11]): 0.4465
- Array Heatmap signal, ING4 (ING4; [12]): 0.4381
- Array Heatmap signal, AIRE (PP) (AIRE (PP); [13]): 0.4331
- Array Heatmap signal, PHF21A (PHF21A; [14]): 0.4399
- Array Heatmap signal, BAZ2B (BAZ2B; [15]): 0.4644
- Array Heatmap signal, PHF13 (PHF13; [16]): 0.5781
- Array Heatmap signal, KDM5B (3) (KDM5B (3); [17]): 0.4939
- Array Heatmap signal, CHD5 (PCC) (CHD5 (PCC); [18]): 0.752
- Array Heatmap signal, RAG2 (RAG2; [19]): 0.2569
- Array Heatmap signal, KDM7A (KDM7A; [20]): 0.308
- Array Heatmap signal, PHF2 (PHF2; [21]): 0.514
- Array Heatmap signal, KDM5B (1) (KDM5B (1); [22]): 0.6889
- Array Heatmap signal, PHF8 (PHF8; [23]): 0.3413
- Array Heatmap signal, MLL5 (MLL5; [24]): 0.5257
- Array Heatmap signal, BPTF (PB) (BPTF (PB); [25]): 0.3386
- Array Heatmap signal, TAF3 (TAF3; [26]): 0.2681
- Array Heatmap signal, PHF23 (PHF23; [27]): 0.5255
- Array Heatmap signal, TRIM66 (PB) (TRIM66 (PB); [28]): 0.7057
- Array Heatmap signal, ING2 (ING2; [29]): 0.5998
- Array Heatmap signal, DPF2 (PPC2W2) (DPF2 (PPC2W2); [30]): 0.6414
- Array Heatmap signal, KDM5A (1) (KDM5A (1); [31]): 0.4672
